{
  "source": "patent US6372746B1",
  "about": "“Derivatives of acyl-piperazinyl-pyrimidines, preparation thereof and application as medicaments” (Laboratorios Del Dr. Esteve, S.A., priority 1997, dated 2002)",
  "key": {"[1]": {"tested_on": "mice", "experiment": "Sleep-inducing activity: capacity to increase the sleep time induced by barbital", "format": "in vivo", "settings": "for % Activity (sleep) Dosage 100 mg/kg: product 100 mg/Kg i.p., 15 min after barbital 150 mg/Kg i.v.; for DE50: product i.p. 15 min after barbital 150 mg/Kg i.v., dosage efficacy 50", "procedure": "Sleep-inducing Activity in Mice\nFifteen minutes after the administration of barbital (150 mg/Kg, i.v.), the mice were treated with the product of the study at an initial dose of 100 mg/Kg (i.p.)."}, "[2]": {"tested_on": "mice", "experiment": "General anaesthetic activity in mice, I.V. administration", "format": "in vivo", "settings": "i.v. caudal vein; for Duration: duration of sleep; for Start / Start (s): start of sleep", "procedure": "General Anaesthetic Activity\nThe general anaesthetic activity was study in mice, injecting the product of the study in the caudal vein. The start and duration time of sleep were recorded. The results for some of the products of the patent are shown in Table 3 and it can be seen that they show a clear anaesthetic activity with respect to the reference compound (Propofol), with the animals recovering later."}, "[3]": {"tested_on": "mice", "experiment": "Analgesic activity: protection from contortions induced by phenylbenzoquinone", "format": "in vivo", "settings": "for DE50 (mg/kg, o.a.): o.a. (orally); for DE50 (mg/kg, o.a.) / DE50 (mg/kg, s.c.): phenylbenzoquinone 5 mg/kg i.p.", "procedure": "The analgesic activity of the products of the invention have been studied by evaluation of their effect in the test of contortions induced by phenylbenzoquinone in mice, following the method described by Siegmund E., and coworkers (Proc. Soc. Exp. Biol. Med. 1957, 95: 729-731).\nThe mice received the products of the study, a different dosage levels, and one later they received an injections i.p. of 5 mg/kg of phenylbenzoquinone. The portions of the mice were registered for the following fifteen minutes and compared the contortions of the control group. The DE50 (dosage efficacy 50) of the pound of Example 4 is shown."}, "[4]": {"tested_on": "mice", "experiment": "Muscular relaxant (miorelaxant) activity in the Irwing mouse test", "format": "in vivo", "settings": "80 mg/kg i.p.; for % muscular relaxation at a time of: 1 H: 1 H after administration; for % muscular relaxation at a time of: 2 H: 2 H after administration; for % muscular relaxation at a time of: 3 H: 3 H after administration; for % muscular relaxation at a time of: 4 H: 4 H after administration; for % muscular relaxation at a time of: 5 H: 5 H after administration; for % muscular relaxation at a time of: ½ H: ½ H after administration", "procedure": "Muscular Relaxant Activity\nThe mice received the products under study at a dosage of 80 mg/kg, via I.p., and at different times after administration (½, 1, 2, 3, 4 and 5 hours) the body tone and the abdominal tone was evaluated looking at the muscular tension compared to the control animals."}},
  "note": "Counter-ions that a name gives are not always drawn.",
  "data": [
    {"smiles": "COc1ccnc(N2CCN(C(=O)C3CC3)CC2)n1", "note": "[Example 9]", "values": [
      {"measurement": "% Activity (sleep) Dosage 100 mg/kg", "setting": "[1]", "value": 67, "unit": "%"},
      {"measurement": "DE50", "setting": "[1]", "value": 28.1, "unit": "mg/kg"}
    ]},
    {"smiles": "COc1ccnc(N2CCN(C(=O)c3ccco3)CC2)n1", "note": "[Example 2, 2-[4-(2-furylcarbonyl)-1-piperazinyl]-4-methoxypyrimidine chlorohydrate]", "values": [
      {"measurement": "Duration", "setting": "[2]; dosage 40 mg/kg", "value": 0.6, "unit": "min"},
      {"measurement": "Start", "setting": "[2]; dosage 40 mg/kg", "value": 12, "unit": "s"},
      {"measurement": "Duration", "setting": "[2]; dosage 80 mg/kg", "value": 5.3, "unit": "min"},
      {"measurement": "Start (s)", "setting": "[2]; dosage 80 mg/kg", "value": "Immediate"},
      {"measurement": "% Activity (sleep) Dosage 100 mg/kg", "setting": "[1]", "value": 93, "unit": "%"},
      {"measurement": "DE50", "setting": "[1]", "value": 14.4, "unit": "mg/kg"}
    ]},
    {"smiles": "Cc1sc2ccccc2c1Cl", "values": [
      {"measurement": "melting point", "value": "175 to 176", "unit": "°C"}
    ]},
    {"smiles": "COc1ccnc(N2CCN(C(=O)c3ccsc3)CC2)n1", "note": "(as salt: HCl) (hydrate or solvate) [Example 13, 4-methoxy-2-[4-(3-thienylcarbonyl)-1-piperazinyl]pyrimidine chlorohydrate]", "values": [
      {"measurement": "melting point", "value": "154 to 156", "unit": "°C"}
    ]},
    {"smiles": "COc1ccnc(N2CCN(C(=O)c3cccs3)CC2)n1", "note": "[Example 4, 4-methoxy-2-[4-(2-thienylcarbonyl)-1-piperazinyl]pyrimidine chlorohydrate]", "values": [
      {"measurement": "Duration", "setting": "[2]; dosage 40 mg/kg", "value": 1.3, "unit": "min"},
      {"measurement": "Start", "setting": "[2]; dosage 40 mg/kg", "value": 15, "unit": "s"},
      {"measurement": "Duration", "setting": "[2]; dosage 80 mg/kg", "value": 7.4, "unit": "min"},
      {"measurement": "Start (s)", "setting": "[2]; dosage 80 mg/kg", "value": "Immediate"},
      {"measurement": "% Activity (sleep) Dosage 100 mg/kg", "setting": "[1]", "value": 100, "unit": "%"},
      {"measurement": "DE50", "setting": "[1]", "value": 8.7, "unit": "mg/kg"},
      {"measurement": "DE50 (mg/kg, o.a.)", "setting": "[3]", "value": 72, "unit": "mg/kg"},
      {"measurement": "DE50 (mg/kg, s.c.)", "setting": "[3]", "value": 48, "unit": "mg/kg"},
      {"measurement": "analgesic activity compared with aspirin (in words)", "setting": "[3]; subcutaneously and orally", "value": "better analgesic activity"},
      {"measurement": "% muscular relaxation at a time of: 1 H", "setting": "[4]", "value": 90, "unit": "%"},
      {"measurement": "% muscular relaxation at a time of: 2 H", "setting": "[4]", "value": 10, "unit": "%"},
      {"measurement": "% muscular relaxation at a time of: 3 H", "setting": "[4]", "value": 0, "unit": "%"},
      {"measurement": "% muscular relaxation at a time of: 4 H", "setting": "[4]", "value": 0, "unit": "%"},
      {"measurement": "% muscular relaxation at a time of: 5 H", "setting": "[4]", "value": 0, "unit": "%"},
      {"measurement": "% muscular relaxation at a time of: ½ H", "setting": "[4]", "value": 100, "unit": "%"}
    ]},
    {"smiles": "CCCC(C)(COC(N)=O)COC(N)=O", "note": "[Meprobamate, reference compound]", "values": [
      {"measurement": "% Activity (sleep) Dosage 100 mg/kg", "setting": "[1]", "value": 54, "unit": "%"},
      {"measurement": "DE50", "setting": "[1]", "value": 84.5, "unit": "mg/kg"}
    ]},
    {"smiles": "COc1ccnc(N2CCN(C(=O)c3ccco3)CC2)n1", "note": "(as salt: HCl) (hydrate or solvate) [Example 2, 2-[4-(2-furylcarbonyl)-1-piperazinyl]-4-methoxypyrimidine chlorohydrate]", "values": [
      {"measurement": "melting point", "value": "162 to 164", "unit": "°C"}
    ]},
    {"smiles": "COc1ccnc(N2CCN(C(=O)c3cccs3)CC2)n1", "note": "(as salt: HCl) (hydrate or solvate) [Example 4, 4-methoxy-2-[4-(2-thienylcarbonyl)-1-piperazinyl]pyrimidine chlorohydrate]", "values": [
      {"measurement": "melting point", "value": "143 to 145", "unit": "°C"}
    ]},
    {"smiles": "CC(=O)Oc1ccccc1C(=O)O", "note": "[Aspirin, reference compound]", "values": [
      {"measurement": "DE50 (mg/kg, o.a.)", "setting": "[3]", "value": 120, "unit": "mg/kg"},
      {"measurement": "DE50 (mg/kg, s.c.)", "setting": "[3]", "value": 84, "unit": "mg/kg"}
    ]},
    {"smiles": "COc1ccnc(N2CCN(C(=O)c3ccsc3)CC2)n1", "note": "[Example 13, 4-methoxy-2-[4-(3-thienylcarbonyl)-1-piperazinyl]pyrimidine chlorohydrate]", "values": [
      {"measurement": "% Activity (sleep) Dosage 100 mg/kg", "setting": "[1]", "value": 77, "unit": "%"},
      {"measurement": "DE50", "setting": "[1]", "value": 41.3, "unit": "mg/kg"}
    ]},
    {"smiles": "CC(C)c1cccc(C(C)C)c1O", "note": "[Propofol, reference compound]", "values": [
      {"measurement": "Duration", "setting": "[2]; dosage 80 mg/kg", "value": 0, "unit": "min"},
      {"measurement": "Start (s)", "setting": "[2]; dosage 80 mg/kg", "value": "No"},
      {"measurement": "Duration", "setting": "[2]; dosage 106 mg/kg", "value": 6.2, "unit": "min"},
      {"measurement": "Start", "setting": "[2]; dosage 106 mg/kg", "value": 30, "unit": "s"},
      {"measurement": "Duration", "setting": "[2]; dosage 120 mg/kg", "value": 3.9, "unit": "min"},
      {"measurement": "Start", "setting": "[2]; dosage 120 mg/kg", "value": 20, "unit": "s"},
      {"measurement": "% muscular relaxation at a time of: 1 H", "setting": "[4]", "value": 100, "unit": "%"},
      {"measurement": "% muscular relaxation at a time of: 2 H", "setting": "[4]", "value": 70, "unit": "%"},
      {"measurement": "% muscular relaxation at a time of: 3 H", "setting": "[4]", "value": 0, "unit": "%"},
      {"measurement": "% muscular relaxation at a time of: 4 H", "setting": "[4]", "value": 0, "unit": "%"},
      {"measurement": "% muscular relaxation at a time of: 5 H", "setting": "[4]", "value": 0, "unit": "%"},
      {"measurement": "% muscular relaxation at a time of: ½ H", "setting": "[4]", "value": 100, "unit": "%"}
    ]}
  ]
}
